This is an account of results in paper PMC6770320 (Cancers, 2019).

Test [1] concerns the target T1, multidrug resistance protein 2 (MRP2) (Homo sapiens, UniProt Q92887).
T1 construct: gene ABCC2; membrane vesicles from Sf9 cells overexpressing human MRP2
As to the kind of experiment: inhibition of oxaliplatin-stimulated ([…]) vanadate-sensitive ATPase in membrane vesicles; […] reduction at […]. In kind it is cell-based.

Test [2] deals with T1, multidrug resistance protein 2 (MRP2). Nature of the test: inhibition of oxaliplatin-stimulated ([…]) vanadate-sensitive ATPase in membrane vesicles; […] reduction at […], no apparent effect at […]. The format is cell-based.
The target is the same in test [3]. Nature of the test: vanadate-sensitive ATPase stimulation in Sf9/MRP2 membrane vesicles, with control vesicles. In kind it is biochemical. The source says: vanadate-sensitive ATPase stimulation in Sf9/MRP2 membrane vesicles, with control vesicles on multidrug resistance protein 2 (MRP2) | oxaliplatin stimulated the vanadate-sensitive MRP2 ATPase activities in a concentration-dependent manner

T1 sequence (Q92887 whole entry): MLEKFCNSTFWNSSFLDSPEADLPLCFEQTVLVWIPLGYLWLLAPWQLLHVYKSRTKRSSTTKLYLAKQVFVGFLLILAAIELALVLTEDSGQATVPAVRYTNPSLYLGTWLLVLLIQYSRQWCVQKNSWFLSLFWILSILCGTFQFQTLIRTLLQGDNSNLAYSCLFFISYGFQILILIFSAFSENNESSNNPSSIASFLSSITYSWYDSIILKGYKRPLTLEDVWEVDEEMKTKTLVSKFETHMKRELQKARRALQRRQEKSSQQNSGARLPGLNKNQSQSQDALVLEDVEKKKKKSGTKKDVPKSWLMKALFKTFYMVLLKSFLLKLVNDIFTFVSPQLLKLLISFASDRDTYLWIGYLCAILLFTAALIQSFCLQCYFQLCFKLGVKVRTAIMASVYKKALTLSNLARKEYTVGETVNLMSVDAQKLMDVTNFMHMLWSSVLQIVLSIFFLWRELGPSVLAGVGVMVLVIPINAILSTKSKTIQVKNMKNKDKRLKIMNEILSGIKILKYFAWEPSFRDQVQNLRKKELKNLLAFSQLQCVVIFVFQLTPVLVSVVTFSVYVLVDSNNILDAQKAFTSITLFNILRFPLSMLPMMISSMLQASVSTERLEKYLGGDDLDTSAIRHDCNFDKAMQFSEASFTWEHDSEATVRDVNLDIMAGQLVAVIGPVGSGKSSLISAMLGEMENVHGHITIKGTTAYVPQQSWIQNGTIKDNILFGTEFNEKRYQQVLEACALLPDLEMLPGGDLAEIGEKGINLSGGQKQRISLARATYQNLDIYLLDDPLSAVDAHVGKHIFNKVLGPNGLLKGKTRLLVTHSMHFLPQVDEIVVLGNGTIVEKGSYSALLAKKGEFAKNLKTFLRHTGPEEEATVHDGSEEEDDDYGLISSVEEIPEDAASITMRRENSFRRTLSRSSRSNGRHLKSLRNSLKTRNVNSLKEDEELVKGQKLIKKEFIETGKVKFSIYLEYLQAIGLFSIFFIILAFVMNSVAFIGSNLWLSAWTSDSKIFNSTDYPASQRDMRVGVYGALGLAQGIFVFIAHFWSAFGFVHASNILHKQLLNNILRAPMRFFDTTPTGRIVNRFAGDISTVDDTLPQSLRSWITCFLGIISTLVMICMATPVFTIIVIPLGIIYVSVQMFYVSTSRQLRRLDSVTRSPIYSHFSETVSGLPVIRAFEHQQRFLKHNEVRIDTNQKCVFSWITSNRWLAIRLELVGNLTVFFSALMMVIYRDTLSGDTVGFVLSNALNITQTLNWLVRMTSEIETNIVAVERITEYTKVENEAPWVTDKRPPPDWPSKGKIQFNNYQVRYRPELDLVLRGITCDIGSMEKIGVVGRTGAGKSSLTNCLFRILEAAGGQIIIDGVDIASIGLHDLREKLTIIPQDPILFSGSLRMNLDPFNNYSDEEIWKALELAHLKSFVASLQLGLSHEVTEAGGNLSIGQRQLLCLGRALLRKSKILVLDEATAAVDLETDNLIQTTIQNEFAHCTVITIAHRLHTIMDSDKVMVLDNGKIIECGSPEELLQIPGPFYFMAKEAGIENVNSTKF

Usually inhibition stands for the percentage by which the read-out fell short of the control. On to `CCc1oc2ccccc2c1C(=O)c1cc(Br)c(O)c(Br)c1` [benzbromarone], for which the inhibition at 100 µM in test [1] stood at 90%.

With `O=c1c(O)c(-c2cc(O)c(O)c(O)c2)oc2cc(O)cc(O)c12` [myricetin], the inhibition at 60 µM in test [2] turned out to be 40%.

The term EC50 denotes the concentration needed to bring the measured effect to its halfway point. Lower therefore signals a more potent agent. In turn, `O=C1[O][Pt]2([NH][C@@H]3CCCC[C@H]3[NH]2)[O]C1=O` [oxaliplatin] had an EC50 in test [3] of 8.3 ± 0.7 µM.
